{"source": "patent EP0363275A1", "about": "“Low molecular weight vectors specific for sugar receptors, their conjugates and processes for their preparation” (IRE-CELLTARG S.A., priority 1988, dated 1990)", "key": {"malaria murine": {"tested_on": "malaria murine", "experiment": "Therapeutic activity of amino-acid derivatives of primaquine in the murine malaria model", "type": "in vivo"}, "[1]": {"molecular_target": "T1, récepteur à asialoglycoprotéine des hépatocytes (Rattus norvegicus, UniProt P02706+P08290)", "T1 construct": "le récepteur à galactoses présent à la membrane sinusoïdale des hépatocytes; endogenous in cells; host or cells: primary rat hepatocytes, isolated and cultured 16 h", "T1 sequence (P02706 1-284)": "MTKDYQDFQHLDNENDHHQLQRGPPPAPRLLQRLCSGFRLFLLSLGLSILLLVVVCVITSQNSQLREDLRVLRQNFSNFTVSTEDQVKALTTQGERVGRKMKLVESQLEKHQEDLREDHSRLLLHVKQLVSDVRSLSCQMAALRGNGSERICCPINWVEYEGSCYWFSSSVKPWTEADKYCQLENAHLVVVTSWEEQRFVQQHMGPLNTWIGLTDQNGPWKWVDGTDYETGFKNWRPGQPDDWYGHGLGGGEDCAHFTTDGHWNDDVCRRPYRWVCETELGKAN", "T1 sequence (P08290 1-301)": "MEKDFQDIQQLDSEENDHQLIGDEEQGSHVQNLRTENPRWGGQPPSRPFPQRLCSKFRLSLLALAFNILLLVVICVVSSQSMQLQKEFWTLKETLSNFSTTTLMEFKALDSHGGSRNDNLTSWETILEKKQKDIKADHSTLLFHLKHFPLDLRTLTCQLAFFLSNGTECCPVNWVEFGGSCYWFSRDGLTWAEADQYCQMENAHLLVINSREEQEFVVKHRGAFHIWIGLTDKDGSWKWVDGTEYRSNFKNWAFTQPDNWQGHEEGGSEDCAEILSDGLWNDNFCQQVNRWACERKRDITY", "experiment": "Competition with ¹²⁵I HSA gal for binding to cultured hepatocytes at 4°C", "settings": "for affinité pour le récepteur: cultured rat hepatocytes", "procedure": "D'autres caractéristiques et avantages de la présente invention apparaîtront à la lumière des exemples qui vont suivre. • - La figure 1 : Expériences de compétition entre l'HSA gal marqué à l'iode-125 et différentes concentrations molaires en HSA gal non radioactives (●) ou en composés glycosylés (mono O bi □ triantenne ▲ ) non radioactifs. Les cellules mises en culture depuis 16 h. sont incubées à 4°C pendant 4 h. en présence de 1 ml de milieu contenant 50 ng d'¹²⁵I HSA gal et les différentes concentrations en produits non radioactifs. Après l'incubation, les cellules sont lavées et la radioactivité qui leur est associée, mesurée. Les résultats sont exprimés en pourcentage d'¹²⁵I HSA gal qui reste associé aux cellules en fonction du logarithme de la concentration molaire en compétiteur. • - La figure 2 : Expériences de compétiton entre l'HSA gal marqué à l'iode-125 et différentes concentrations molaires en galactoses d'HSA gal ou de composés glycosylés (mono O bi □ et triantenne ▲ )non radioactifs. Les cellules sont traitées comme décrit dans la figure 1 et les résultats sont exprimés en pourcentage d'[…] HSA gal qui reste associé aux cellules en fonction du logarithme de la concentration molaire en galactose du compétiteur. • - La figure 3 : Distribution tissulaire de la triantenne marquée au tritium. Différentes concentrations en triantenne ³H sont administrées par voie intraveineuse à des souris OF₁. Trois minutes après l'injection, les animaux sont sacrifiés. Le sang et les différentes organes sont prélevés, homogénéisés et la radioactivité qui leur est associée, mesurée. Les résultats sont exprimés en pourcentage de la dose totale injectée et représentent la moyenne + déviation standard de 3 expériences. • - La figure 4 : Distribution tissulaire de la triantenne marquée au tritium. Des souris ont reçu par voie i.v. différentes concentrations de triantenne ³H. Les animaux sont sacrifiés 3 min. après l'injection. Le sang et les différents organes sont prélevés, homogénéisés et la radioactivité qui leur est associée, mesurée. Les résultats sont présentés en pourcentage de la dose injectée par gr. de tissu et représentent la moyenne + déviation standard de 3 expériences. • - La figure 5 : Capture hépatique de la triantenne marquée au tritium. Différentes concentrations en triantenne ³H sont injectées par voie i.v. à des souris OF₁. La radioactivité associée au foie est mesurée 3 min. après l'injection. Les valeurs sont exprimées en ng de galactose associés au foie en fonction des ng de galactoses injectés. • - La figure 6 : Distribution tissulaire de la triantenne marquée au tritium (a.) ou au technetium (b.). Une concentration de 100 µg en galactoses de triantenne radioactive est injectée par voie i.v. à des souris OF₁. Les animaux sont sacrifiés 3 min. après l'injection. Le sang et les différents organes sont prélevés, homogénéisés et la radioactivité qui leur est associée, mesurée. Les résultats sont exprimés en pourcentage de la dose totale administrée (case supérieure) ou en pourcentage de la dose totale injectée par gr. de tissu (case inférieure). Ils représentent la moyenne + déviation standard de 3 expériences.\nL'étude in vitro des vecteurs hépatotropes de faible poids moléculaire a été effectuée sur des hépatocytes de rats isolés et mis en culture.\nL'affinité relative a été déterminée par une expérience de compétition entre le vecteur et une néoglycoprotéine connue pour sa haute affinité pour les récepteurs à galactoses, soit l'albumine humaine\nAfin de déterminer si les hépathocytes fixent spécifiquement les différents dérivés glycosylés (monoantenne = 3 galactoses terminaux; biantenne = 6 galactoses terminaux; triantenne = 9 galactoses terminaux), des expériences de compétition pour le récepteur à asialoglycoprotéines entre l'HSA gal et les différents composés ont été réalisées. […]"}, "hépatocytes": {"tested_on": "hépatocytes", "experiment": "Uptake (internalisation) by hepatocytes at 37°C", "type": "cell-based, rat", "settings": "short periods (120 min)", "procedure": "A 37°C, les récepteurs intériorisent efficacement la triantenne. Par comparaison avec la capture de la macromolécule, ASH gal, les hépatocytes incubés pendant de courtes périodes (120 min), intériorisent jusqu'à 4 fois plus de molécules de triantenne.\nCe fait pourrait s'expliquer par la formation préférentielle de complexes ligand-récepteur à vitesse de dissociation lente, dans le cas de la triantenne."}, "récepteur d'Ashwell": {"molecular_target": "T2, récepteur d'Ashwell (Rattus norvegicus, UniProt P02706+P08290)", "T2 construct": "endogenous in cells", "T2 sequence (P02706 1-284)": "T1 sequence (P02706 1-284)", "T2 sequence (P08290 1-301)": "T1 sequence (P08290 1-301)", "experiment": "Binding sites and Kd of triantenne on hepatocytes", "settings": "number of sites"}, "[2]": {"experiment": "Blood disappearance and tissue distribution after i.v. administration (Example 7)", "type": "in vivo, souris", "excerpt": "In vivo, on a étudié la disparition sanguine ainsi que la distribution tissulaire de la triantenne suite à son administration intra-veineuse à des souris."}, "[3]": {"set-up": "species or system souris OF₁", "settings": "in vivo, iv", "procedure": "D'autres caractéristiques et avantages de la présente invention apparaîtront à la lumière des exemples qui vont suivre. • - La figure 1 : Expériences de compétition entre l'HSA gal marqué à l'iode-125 et différentes concentrations molaires en HSA gal non radioactives (●) ou en composés glycosylés (mono O bi □ triantenne ▲ ) non radioactifs. Les cellules mises en culture depuis 16 h. sont incubées à 4°C pendant 4 h. en présence de 1 ml de milieu contenant 50 ng d'¹²⁵I HSA gal et les différentes concentrations en produits non radioactifs. Après l'incubation, les cellules sont lavées et la radioactivité qui leur est associée, mesurée. Les résultats sont exprimés en pourcentage d'¹²⁵I HSA gal qui reste associé aux cellules en fonction du logarithme de la concentration molaire en compétiteur. • - La figure 2 : Expériences de compétiton entre l'HSA gal marqué à l'iode-125 et différentes concentrations molaires en galactoses d'HSA gal ou de composés glycosylés (mono O bi □ et triantenne ▲ )non radioactifs. Les cellules sont traitées comme décrit dans la figure 1 et les résultats sont exprimés en pourcentage d'[…] HSA gal qui reste associé aux cellules en fonction du logarithme de la concentration molaire en galactose du compétiteur. • - La figure 3 : Distribution tissulaire de la triantenne marquée au tritium. […]"}, "[4]": {"settings": "among amino-acid derivatives of primaquine"}, "[5]": {"settings": "result in words, hepatocytes, 4°C"}}, "note": "Values joined by “and” are separate entries in the source; they are usually repeats but may differ in a detail not shown here. Equal entries are not always repeated. “Also recorded” adds a separate entry of the source."}
{"molecule": "COc1cc(NC(C)CCCNC(=O)[C@@H](N)CCC(=O)O)c2ncccc2c1", "note": "(stereo partly drawn) [L-glutamyl-Pq]", "values": [{"measurement": "index thérapeutique", "setting": "malaria murine; [4]", "value": "meilleur index thérapeutique"}]}
{"molecule": "Cbz-Asp-(6-amino Hex-Tris tri Gal) [Monoantenne]", "values": [{"measurement": "B=Ic50 (molaire en gal.)", "setting": "[1]; molar concentration in galactoses of the competitor inhibiting 50 % of ¹²⁵I HSA gal binding, hepatocytes, 4°C, 4 h", "value": "non déterminable"}, {"measurement": "A=Ic 50 (molaire)", "setting": "[1]; molar concentration of competitor inhibiting 50 % of ¹²⁵I HSA gal binding, hepatocytes, 4°C, 4 h", "value": "non déterminable"}, {"measurement": "affinité pour le récepteur", "setting": "[1]; result in words", "value": "ne présentent d'affinité significative"}, {"measurement": "compétition avec l'HSA gal iodiné pour le récepteur à asialoglycoprotéine", "setting": "[1]; [5]", "value": "n'entre pas en compétition; also recorded: se fixe aspécifiquement sur les cellules"}]}
{"molecule": "COc1cc(NC(C)CCCNC(=O)C(N)CCCCN)c2ncccc2c1", "note": "[L-lysyl-Pq]", "values": [{"measurement": "activité", "setting": "malaria murine; [4]", "value": "meilleure activité"}, {"measurement": "toxicité", "setting": "malaria murine; compared with primaquine", "value": "toxicité plus élevée que celle de la primaquine"}]}
{"molecule": "Cbz-Asp-Asp-tri(-6-amino Hex-Tris tri Gal) [Triantenne]", "values": [{"measurement": "molécules intériorisées par rapport à l'ASH gal", "setting": "hépatocytes", "value": "≤ 4", "unit": "fois"}, {"measurement": "sites de haute affinité", "setting": "récepteur d'Ashwell", "value": 56370, "unit": "sites"}, {"measurement": "sites de plus faible affinité", "setting": "récepteur d'Ashwell", "value": 490500, "unit": "sites"}, {"measurement": "quantité accumulée par les hépatocytes", "setting": "[2]; 5 min after injection", "value": "> 40 % de la quantité administrée"}, {"measurement": "quantité interagissant avec les autres organes", "setting": "[2]; 5 min after injection", "value": "< 2", "unit": "%"}, {"measurement": "rapport des concentrations spécifiques du foie et des reins", "setting": "[2]; after 10 min", "value": 10}, {"measurement": "molécules captées par le foie par rapport à l'ASH gal", "setting": "[2]; comparable number of molecules, after 5 min", "value": "~2", "unit": "fois"}, {"measurement": "disparition sanguine", "setting": "[2]; result in words", "value": "éliminée très rapidement de la circulation sanguine"}, {"measurement": "rapport des concentrations spécifiques du foie et des reins", "setting": "[2]; start value", "value": 1.5}, {"measurement": "matériel radioactif associé au sang ou au plasma", "setting": "[3]", "value": "≤ 10 % de la dose initiale administrée"}, {"measurement": "radioactivité associée aux autres organes (rate, coeur, poumons, muscles, estomac, duodenum, colon, rectum)", "setting": "[3]", "value": "< 5", "unit": "%"}, {"measurement": "affinité par rapport à celle de la biantenne", "setting": "[1]; ratio triantenne / biantenne", "value": "~100 fois and 60 fois"}, {"measurement": "affinité exprimée en concentration molaire en galactoses, par rapport à l'HSA gal", "setting": "[1]; result in words", "value": "du même ordre de grandeur"}, {"measurement": "affinité pour le récepteur", "setting": "[1]; result in words", "value": "la plus haute affinité pour le récepteur; also recorded: affinité importante"}, {"measurement": "compétition avec l'HSA gal iodiné pour le récepteur à asialoglycoprotéine", "setting": "[1]; [5]", "value": "induit une diminution de la radioactivité associée aux cellules"}]}
{"molecule": "Cbz-Asp bis(-6-amino Hex-Tris tri Gal) [Biantenne]", "values": [{"measurement": "affinité pour le récepteur", "setting": "[1]; result in words", "value": "affinité importante"}, {"measurement": "compétition avec l'HSA gal iodiné pour le récepteur à asialoglycoprotéine", "setting": "[1]; [5]", "value": "induit une diminution de la radioactivité associée aux cellules; also recorded: entre effectivement en compétition"}]}
